Data on eight compounds can be found in patent US20040067894A1, “Preparation having antioxidant properties” (Merck Patent GmbH, priority 2002, published 2004).

Bounds are passed on as bounds.

The nature of this experiment: DPPH assay (free-radical scavenging, antioxidant activity). The class given is biochemical. The conditions noted are these: for AE (×10^−3): anti-free-radical efficiency, obtained from EC50 and TEC50; for TEC50: reaction time necessary to achieve the EC50 value. Here is the method:
2,2-Diphenyl-1-picrylhydrazyl is a free radical which is stable in solution. The unpaired electron results in a strong absorption band at 515 nm, and the solution has a dark violet color. In the presence of a free-radical scavenger, the electron is paired, the absorption disappears, and the decoloration proceeds stoichiometrically taking into account the electrons taken up. The absorbance is measured in a photometer. The anti-free-radical property of the substance to be tested is determined by measuring the concentration at which 50% of the 2,2-diphenyl-1-picrylhydrazyl employed has reacted with the free-radical scavenger. This concentration is expressed as EC50, a value which can be considered to be a property of the substance under the given measurement conditions. The substance investigated is compared with a standard (for example tocopherol). The EC50 value here is a measure of the capacity of the respective compound to scavenge free radicals. The lower the EC50 value, the higher the capacity to scavenge free radicals.
A further important aspect for the action of the antioxidants is the time in which this EC50 value is reached. This time, measured in minutes, gives the TEC50 value, which allows a conclusion to be drawn on the rate at which these antioxidants scavenge free radicals.
The antioxidant activity of the compounds according to the invention is determined compared with the activity of quercetin (3,5,7,3′,4′-pentahydroxyflavone) and other conventional antioxidants. The antioxidant activity here is taken to mean the ability to function as hydrogen or electron donor and thus to be able to scavenge free radicals. DPPH assay is used for the determination.
A stock solution of 2,2-diphenyl-1-picrylhydrazyl (DPPH) in ethanol is prepared (0.025 g/l of DPPH-free radicals). Aliquots of this solution are mixed with various concentrations of the compound to be tested. The absorbance is in each case measured at 515 nm, 25° C. and 1 cm.
The lower this value, the higher the corresponding antioxidant activity.
The reaction time necessary to achieve this value is indicated in the value TEC50 (in minutes).
The anti-free-radical efficiency (AE) is obtained from this in accordance with the following relationship: [formula]
A higher AE value here indicates a higher activity against free radicals.

Turning to `O=C1c2c(O)cc(O)cc2OC(c2ccc(O)c(O)c2)C1O` (stereo not shown) [3,5,7,3′,4′-Pentahydroxyflavanone], the “AE (×10^−3)” value was 5.53 ×10^−3 and the TEC50 amounted to 1200 min.

`O=c1c(O)c(-c2ccc(O)c(O)c2)oc2cc(O)cc(O)c12` [3,5,7,3′,4′-pentahydroxyflavone]: the “AE (×10^−3)” value is reported as 18.72 ×10^−3 and the TEC50 came out at 600 min.

In the case of `O=c1cc(-c2ccccc2)oc2cc(O)c(O)c(O)c12` [5,6,7-Trihydroxyflavone/bacalein, 5,6,7-trihydroxyflavone], the “AE (×10^−3)” value is 27.78 ×10^−3 and the TEC50 amounted to 360 min.

In the case of `O=c1cc(-c2ccc(O)c(O)c2)oc2ccc(O)cc12` [6,3′,4′-Trihydroxyflavone, 6,3′,4′-trihydroxyflavone], the “AE (×10^−3)” value was 46.30 ×10^−3 and the TEC50 stood at 180 min.

As for `O=c1cc(-c2ccc(O)c(O)c2)oc2c(O)c(O)ccc12` [7,8,3′,4′-Tetrahydroxyflavone, 7,8,3′,4′-tetrahydroxyflavone], the “AE (×10^−3)” value was 18.52 ×10^−3 and the TEC50 was determined as 600 min.

As for `O=C1O[C@H]([C@@H](O)CO)C(O)=C1O` [Ascorbic acid], the “AE (×10^−3)” value is on record as 61.72 ×10^−3 and the TEC50 was <60 min.

For `COc1cc(/C=C/C(=O)O)ccc1O` [Ferulic acid], the “AE (×10^−3)” value was 4.9 ×10^−3 and the TEC50 was 600 min.

As for Tocopherol, the “AE (×10^−3)” value is 64.1 ×10^−3 and the TEC50 was <60 min.
